Experimental data from ChEMBL document CHEMBL4043138, “Synthesis of antimalarial amide analogues based on the plant serrulatane diterpenoid 3,7,8-trihydroxyserrulat-14-en-19-oic acid” (Bioorg Med Chem Lett, 2017).
Calls of active or inactive are those of the source. No cut-off for these calls is given here.

Columns and labels:
HEK293 [1] = assay: Cytotoxicity against HEK293 cells assessed as cell growth inhibition at 40 uM after 72 hrs by Alamar blue assay; type: cell-based; conditions: human, hek293, 72 h
HEK293 [2] = assay: Cytotoxicity against HEK293 cells assessed as cell growth inhibition after 72 hrs by Alamar blue assay; type: cell-based; conditions: Homo sapiens, HEK293, 72 h
Plasmodium falciparum [3] = assay: Antimalarial activity against Plasmodium falciparum Dd2 after 72 hrs by DAPI staining-based fluorescence microscopic analysis; type: functional; conditions: Dd2, 72 h
[4] = Selectivity ratio of IC50 for Plasmodium falciparum Dd2 to IC50 for Plasmodium falciparum 3D7; type: functional
[5] = Selectivity index, ratio of IC50 for HEK293 cells to IC50 for Plasmodium falciparum 3D7; type: toxicity; conditions: human, HEK293 cells versus Plasmodium falciparum 3D7; read-out: Ratio IC50
Plasmodium falciparum [6] = assay: Antimalarial activity against Plasmodium falciparum 3D7 after 72 hrs by DAPI staining-based fluorescence microscopic analysis; type: functional; conditions: 3D7, 72 h
HEK293 [7] = assay: (§1) Cytotoxicity against HEK293 cells assessed as cell growth inhibition at 80 uM after 72 hrs by Alamar blue assay relative to control; type: cell-based; conditions: human, hek293, 72 h, 80 µM
Plasmodium falciparum [8] = assay: Antimalarial activity against Plasmodium falciparum Dd2 at 80 uM after 72 hrs by DAPI staining-based fluorescence microscopic analysis; type: functional
[9] = as §1; type: cell-based; conditions: human, HEK293 cells; read-out: GI
Plasmodium falciparum [10] = assay: Antimalarial activity against Plasmodium falciparum 3D7 at 10 uM after 72 hrs by DAPI staining-based fluorescence microscopic analysis; type: functional
[11] = Cytotoxicity against HEK293 cells assessed as cell growth inhibition at 20 uM after 72 hrs by Alamar blue assay relative to control; type: cell-based; conditions: human, read-out: GI

Row | IC50 (Plasmodium falciparum [3]) [µM] | IC50 (Plasmodium falciparum [6]) [µM] | Structure (SMILES) | growth inhibition (GI) (HEK293 [1]) | IC50 (HEK293 [2]) [µM] | Ratio IC50 [4] | selectivity ratio [5] | growth inhibition (GI) (HEK293 [7]) | Activity (Plasmodium falciparum [8]) | inhibition at 72 h, 80 µM [9] [%] | Activity (Plasmodium falciparum [10]) | inhibition at 72 h, 20 µM [11] [%]
1 | – | – | CCN(CC)CCCC(C)Nc1ccnc2cc(Cl)ccc12 (stereo not given) [CHLOROQUINE] | Non-Toxic | 40 | – | – | – | – | – | – | –
2 | 3.76 | 1.25 | CC(C)=CCC[C@H](C)[C@H]1c2cc(C(=O)NCCc3ccc(F)cc3)c(OC(=O)C(C)(C)C)c(OC(=O)C(C)(C)C)c2[C@H](C)C[C@H]1OC(=O)C(C)(C)C | – | 80 | 3 | > 64 | Non-Toxic | – | – | – | –
3 | 3.63 | 1.4 | CC(C)=CCC[C@H](C)[C@H]1c2cc(C(=O)NCCc3ccccc3)c(OC(=O)C(C)(C)C)c(OC(=O)C(C)(C)C)c2[C@H](C)C[C@H]1OC(=O)C(C)(C)C | – | 80 | 2.6 | > 57 | Non-Toxic | – | – | – | –
4 | – | 13.6 | CC(C)=CCC[C@H](C)[C@H]1c2cc(C(=O)O)c(OC(=O)C(C)(C)C)c(OC(=O)C(C)(C)C)c2[C@H](C)C[C@H]1O | – | 40 | – | 2.9 | – | inactive | 70 | – | –
5 | 4.57 | 2.44 | CC(C)=CCC[C@H](C)[C@H]1c2cc(C(=O)NCCc3ccc(Cl)cc3)c(OC(=O)C(C)(C)C)c(OC(=O)C(C)(C)C)c2[C@H](C)C[C@H]1O | – | 80 | 1.9 | 32 | – | – | 68 | – | –
6 | 10.2 | 8.44 | CC(C)=CCC[C@H](C)[C@H]1c2cc(C(=O)O)c(O)c(OC(=O)C(C)(C)C)c2[C@H](C)C[C@H]1OC(=O)C(C)(C)C | – | 40 | 1.2 | 4.7 | – | – | 100 | – | –
7 | 18 | 9.97 | CC(C)=CCC[C@H](C)[C@H]1c2cc(C(=O)O)c(OC(=O)C(C)(C)C)c(OC(=O)C(C)(C)C)c2[C@H](C)C[C@H]1OC(=O)C(C)(C)C | – | 40 | 1.8 | 4 | – | – | 100 | – | –
8 | 6.17 | 2.12 | CC(C)=CCC[C@H](C)[C@H]1c2cc(C(=O)NCc3ccccc3)c(OC(=O)C(C)(C)C)c(OC(=O)C(C)(C)C)c2[C@H](C)C[C@H]1OC(=O)C(C)(C)C | – | 40 | 2.9 | 19 | – | – | 82 | – | –
9 | 8.76 | 5.65 | CC(C)=CCC[C@H](C)[C@H]1c2cc(C(=O)NCCN(C)C)c(OC(=O)C(C)(C)C)c(OC(=O)C(C)(C)C)c2[C@H](C)C[C@H]1OC(=O)C(C)(C)C | – | 14.6 | 1.6 | 2.6 | – | – | – | – | –
10 | – | – | CC(C)=CCC[C@H](C)[C@H]1c2cc(C(=O)O)c(O)c(O)c2[C@H](C)C[C@H]1O | – | – | – | – | – | – | – | inactive | –
11 | – | – | CC(=O)O[C@@H]1C[C@@H](C)c2c(cc(C(=O)O)c(O)c2O)[C@@H]1[C@@H](C)CCC=C(C)C | – | – | – | – | – | – | – | inactive | –
12 | 5.03 | 1.42 | CC(C)=CCC[C@H](C)[C@H]1c2cc(C(=O)NCc3ccc(Br)cc3)c(OC(=O)C(C)(C)C)c(OC(=O)C(C)(C)C)c2[C@H](C)C[C@H]1OC(=O)C(C)(C)C | – | 40 | 3.6 | 28 | – | – | 71 | – | –
13 | 4.96 | 1.36 | CC(C)=CCC[C@H](C)[C@H]1c2cc(C(=O)NCc3ccc(Cl)cc3)c(OC(=O)C(C)(C)C)c(OC(=O)C(C)(C)C)c2[C@H](C)C[C@H]1OC(=O)C(C)(C)C | – | 40 | 3.6 | 29.4 | – | – | 86 | – | –
14 | 5.94 | 2.7 | CC(C)=CCC[C@H](C)[C@H]1c2cc(C(=O)NCCc3ccc(Cl)cc3)c(OC(=O)C(C)(C)C)c(OC(=O)C(C)(C)C)c2[C@H](C)C[C@H]1OC(=O)C(C)(C)C | – | 80 | 2.2 | > 30 | Non-Toxic | – | – | – | –
15 | 6.13 | 1.79 | CC(C)=CCC[C@H](C)[C@H]1c2cc(C(=O)NCc3ccc(F)cc3)c(OC(=O)C(C)(C)C)c(OC(=O)C(C)(C)C)c2[C@H](C)C[C@H]1OC(=O)C(C)(C)C | – | 80 | 3.4 | 44 | – | – | 44 | – | –
16 | 8.76 | 6.89 | CC(=O)OCc1cc2c(c(O)c1O)[C@H](C)C[C@@H](OC(C)=O)[C@H]2[C@@H](C)CCC=C(C)C | – | 80 | 1.3 | 11.6 | – | – | 59 | – | –
17 | 7.42 | 3.12 | CC(C)=CCC[C@H](C)[C@H]1c2cc(C(=O)NCCc3ccc(Br)cc3)c(OC(=O)C(C)(C)C)c(OC(=O)C(C)(C)C)c2[C@H](C)C[C@H]1OC(=O)C(C)(C)C | – | 80 | 2.4 | > 26 | Non-Toxic | – | – | – | –

Row | Structure (SMILES) | IC50 (Plasmodium falciparum [3]) [µM] | IC50 (Plasmodium falciparum [6]) [µM] | growth inhibition (GI) (HEK293 [1]) | IC50 (HEK293 [2]) [µM] | Ratio IC50 [4] | selectivity ratio [5] | growth inhibition (GI) (HEK293 [7]) | Activity (Plasmodium falciparum [8]) | inhibition at 72 h, 80 µM [9] [%] | Activity (Plasmodium falciparum [10]) | inhibition at 72 h, 20 µM [11] [%]
18 | COc1ccc(C[C@H](N)C(=O)N[C@H]2[C@@H](O)[C@H](n3cnc4c(N(C)C)ncnc43)O[C@@H]2CO)cc1 [PUROMYCIN] | 0.0438 | 0.0532 | – | 0.46 | 1.16 | 9 | – | – | – | – | –
19 | C[C@H]1[C@H](OC(=O)CCC(=O)O)O[C@@H]2O[C@@]3(C)CC[C@H]4[C@H](C)CC[C@@H]1[C@@]24OO3 [ARTESUNATE] | 0.001 | – | – | 10 | – | > 11600 | – | – | – | – | 91
